According to PubChem BioAssay (NCI):
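Each compound was tested at five concentrations against cells in 96-well plates for 48 hours. GI50 is the concentration that inhibits growth by half. TGI marks complete inhibition of growth.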

Assays:
Assay in all cases: inhibition of tumour cell growth, NCI panel, 48 h
[1] = tested on: SF-268 CNS
[2] = tested on: SK-MEL-5 melanoma
[3] = tested on: SK-OV-3 ovarian
[4] = tested on: NCI-H23 lung
[5] = tested on: NCI-H522 lung
[6] = tested on: UACC-62 melanoma
[7] = tested on: SNB-78 CNS
[8] = tested on: CCRF-CEM leukemia
[9] = tested on: HCT-116 colon
[10] = tested on: LOX IMVI melanoma

| Compound | TGI [1] | TGI [2] | TGI [3] | TGI [4] | TGI [5] | TGI [6] | TGI [7] | TGI [8] | TGI [9] | TGI [10] | GI50 [1] | GI50 [2] | GI50 [3] | GI50 [4] | GI50 [5] | GI50 [6] | GI50 [9] | GI50 [8] | GI50 [10] |
| --- | --- | --- | --- | --- | --- | --- | --- | --- | --- | --- | --- | --- | --- | --- | --- | --- | --- | --- | --- |
| Nc1ccc(C(=O)N/C(=C\c2ccc3c(c2)OCO3)c2nc3[nH]c(=S)[nH]c(=O)c3[nH]2)cc1 | > 100 µM | > 100 µM | > 100 µM | > 100 µM | > 100 µM | > 100 µM | > 100 µM | > 100 µM |  |  |  |  |  |  |  |  |  |  |  |
| COc1ccccc1NC(=O)CC(=O)n1nc(C)c(N=Nc2ccccc2C(=O)O)c1C | > 100 µM | > 100 µM | > 100 µM | > 100 µM | > 100 µM | > 100 µM | > 100 µM | > 100 µM | > 100 µM | > 100 µM |  |  |  |  |  |  |  |  |  |
| O=C(/C=C/c1ccccc1Cl)c1ccc(Cl)c(Cl)c1 | 33.7 µM | 36.1 µM | 51.3 µM | 36.4 µM | 31.1 µM | 45.6 µM | 32.7 µM | 81.8 µM | 23.6 µM | 28 µM |  |  |  |  |  |  |  |  |  |
| CC1=C(C(=O)Nc2ccccc2C)C(c2ccco2)C(C(=O)Nc2ccccc2C)=C(C)N1C | > 100 µM | > 100 µM | > 100 µM | > 100 µM | > 100 µM | > 100 µM | > 100 µM | > 100 µM | > 100 µM | > 100 µM |  |  |  |  |  |  |  |  |  |
| C=CCc1cc(OC)c2c(c1)C(O)CC(c1ccc(OC)c(OC)c1)O2 (centres undefined) | > 100 µM | > 100 µM | > 100 µM | > 100 µM | > 100 µM | > 100 µM | > 100 µM | > 100 µM | > 100 µM |  |  |  |  |  |  |  |  |  |  |
| COc1ccc(NC(=O)c2cc(OC)cc(OC)c2)cc1 | > 100 µM | > 100 µM | > 84.8 µM | > 100 µM | 83.8 µM | > 100 µM | 83.3 µM | > 100 µM | > 100 µM | > 100 µM |  |  |  |  |  |  |  |  |  |
| CCOC(=O)COc1cccc2c1C(=O)CCO2 | > 100 µM | > 100 µM | > 100 µM | > 100 µM | > 100 µM | > 100 µM | > 100 µM | > 100 µM | > 100 µM | > 100 µM |  |  |  |  |  |  |  |  |  |
| CCOC(=O)C(Sc1ccccc1)c1c(OC)cc(=O)oc1/C=[N+](/[O-])c1ccc(N(C)C)cc1 (centres undefined) | > 100 µM | 44.9 µM | > 100 µM | 78.5 µM |  | 51.8 µM | 78.9 µM | 15.4 µM |  | 26.6 µM |  |  |  |  |  |  |  |  |  |
| CC(=O)C(CN(C(C)C)C(C)C)C(c1ccccc1)c1c(O)c2ccccc2oc1=O (centres undefined) | > 100 µM | > 100 µM | > 100 µM | > 100 µM | > 100 µM | > 100 µM | > 100 µM | > 100 µM | > 100 µM | > 100 µM |  |  |  |  |  |  |  |  |  |
| COc1cccc(NC(=O)CC(=O)n2nc(C)c(N=Nc3ccccc3)c2C)c1 | > 100 µM | > 100 µM | > 100 µM | > 100 µM | > 100 µM | > 100 µM | > 100 µM |  | > 100 µM | > 100 µM |  |  |  |  |  |  |  |  |  |
| O=C(O)C(Cc1ccccc1)N1C(=O)N/C(=C\c2ccc(F)cc2)C1=O (centres undefined) |  | > 100 µM | > 100 µM | > 100 µM | > 100 µM | > 100 µM | > 100 µM | > 100 µM | > 100 µM | > 100 µM |  |  |  |  |  |  |  |  |  |
| COc1ccc(-n2/c(=N/C(=S)N(C)C)ss/c2=N\C(=S)N(C)C)cc1 | > 100 µM |  | > 100 µM | > 100 µM | 16.6 µM | 24.8 µM | > 100 µM |  | > 100 µM | > 100 µM |  |  |  |  |  |  |  |  |  |
| COc1cc2nc(-c3ccc(C(F)(F)F)cc3)cc(OCCCN3CCC(O)CC3)c2cc1OC | 24.7 µM | 4.72 µM | 25.3 µM | 21 µM | 19.3 µM | 7.28 µM |  | 17.7 µM | 17.2 µM | 0.447 µM | 5.76 µM | 1.43 µM | 10.6 µM | 6.16 µM | 4.15 µM | 2.61 µM | 0.671 µM | 3.27 µM | 0.19 µM |
